According to patent publication US9394261B2, “Aryl amine substituted pyrimidine and quinazoline and their use as anticancer drugs” (National Yang-Ming University, priority 2012, dated 2016):
Entries after “also recorded” stand apart in the source; their conditions may differ.

Columns and labels:
[1] = test system: SK-Hep-1 cell lines (a hepatocellular carcinoma (HCC) cell); assay: MTT assay, growth inhibition of SK-Hep-1 cells; type: cell-based; conditions: for IC50: SK-Hep-1 cells, 48 hours
Experimental: MTT assay was used to measure growth inhibition. […] MTT (3-(4,5-dimethylthiazol-2-yl)-2,5-diphenyl tetrazolium bromide) assay was performed as follow.
(§1) The effect of individual test compounds on cell viability was assessed by using the MTT in 6 replicates. Sk-Hep-1 cells were seeded and incubated in 96-well, flat-bottomed plates for 24 hours, and were exposed to various concentrations of test compounds dissolved in DMSO (final concentration, 0.1%) for 48 hours. Controls received DMSO vehicle at a concentration equal to that in drug-treated cells. The medium was removed, replaced by 200 μL of 0.5 mg/mL MTT in 10% fetal bovine serum containing DMEM (Dulbecco's Modified Eagle Medium), and cells were incubated in the carbon dioxide incubator at 37° C. for 2 hours. Supernatants were removed from the wells and the reduced MTT dye was solubilized in 100 μL/well DMSO. Absorbance at 570 nm was determined on a plate reader.
The SK-Hep1 cells were then analyzed with western blot assay and MTT assay.

CIP2A [2] = assay: western blot of CIP2A expression in SK-Hep1 cells; type: cell-based; conditions: SK-Hep-1 cells; for inhibiting CIP2A expression: 5 μM, 30 hours (FIG. 4A)
Experimental: Accordingly, the pyrimidine and quinazoline derivatives above were screened by using western blot analysis for expression of CIP2A in SK-Hep1 cells. Before the western blot analysis, the SK-Hep-1 cells were maintained in DMEM supplemented with 10% FBS, 100 units/mL penicillin G, 100 μg/mL streptomycin sulfate and 25 μg/mL amphotericin B in a 37° C. humidified incubator in an atmosphere of 5% CO2 in air. In this western blot analysis, SK-Hep1 cells were respectively treated with compounds 1-24 at a concentration of 20 μM for 24 hours. In FIG. 2, the mono-substituted pyrimidine derivatives (compounds 1-5) have no appreciable change in CIP2A expression.
Cell viability, measured by MTT assay, and CIP2A expressions, analyzed by western blot, in response to compound 19 or erlotinib treatment in SK-Hep1 cell line were analyzed. SK-Hep-1 cells were treated with erlotinib and compound 19 at 2.5 and 5 μM for 24 h, respectively. The SK-Hep1 cells were then analyzed with western blot assay and MTT assay.
(§2) Next, compounds […], 19, and 22 were used to explore whether downregulation of CIP2A lead to suppression of p-Akt. FIG. 4A is the western blot analysis of the effect of the compounds 4, 19, and 22 on phosphorylation of Akt, PARP and Actin. In this western blot analysis, SK-Hep-1 cells were respectively treated with compounds 4, 19, and 22 at a concentration of 5 μM for 30 hours. […] That is, compound 19 and 22 can substantially increase apoptotic cell death to inhibit cancer growth.

p-Akt = assay: western blot of p-Akt in SK-Hep-1 cells; type: cell-based; conditions: for p-Akt level: SK-Hep-1 cells, 5 μM, 30 hours (FIG. 4A)
Experimental: as §2
In other words, in the present of okadaic acid, the activation of PP2A by compound 19-incuced CIP2A inactivation is blocked.

PARP [3] = assay: western blot of PARP cleavage in SK-Hep-1 cells; type: cell-based; conditions: 5 μM, 30 hours (FIG. 4A)
Experimental: as §2

EGFR [4] = target: T1, EGFR (Homo sapiens, UniProt P00533, DEL746-750); assay: western blot of EGFR phosphorylation in PC9 cells; type: cell-based; conditions: for EGFR phosphorylation inhibition (western blot): PC9 cells, 2 μM, 24 h (FIG. 3A)
T1 construct: endogenous in cells; host or cells: PC9 cells
T1 sequence (P00533 with tags, fused parts or gaps DEL746-750): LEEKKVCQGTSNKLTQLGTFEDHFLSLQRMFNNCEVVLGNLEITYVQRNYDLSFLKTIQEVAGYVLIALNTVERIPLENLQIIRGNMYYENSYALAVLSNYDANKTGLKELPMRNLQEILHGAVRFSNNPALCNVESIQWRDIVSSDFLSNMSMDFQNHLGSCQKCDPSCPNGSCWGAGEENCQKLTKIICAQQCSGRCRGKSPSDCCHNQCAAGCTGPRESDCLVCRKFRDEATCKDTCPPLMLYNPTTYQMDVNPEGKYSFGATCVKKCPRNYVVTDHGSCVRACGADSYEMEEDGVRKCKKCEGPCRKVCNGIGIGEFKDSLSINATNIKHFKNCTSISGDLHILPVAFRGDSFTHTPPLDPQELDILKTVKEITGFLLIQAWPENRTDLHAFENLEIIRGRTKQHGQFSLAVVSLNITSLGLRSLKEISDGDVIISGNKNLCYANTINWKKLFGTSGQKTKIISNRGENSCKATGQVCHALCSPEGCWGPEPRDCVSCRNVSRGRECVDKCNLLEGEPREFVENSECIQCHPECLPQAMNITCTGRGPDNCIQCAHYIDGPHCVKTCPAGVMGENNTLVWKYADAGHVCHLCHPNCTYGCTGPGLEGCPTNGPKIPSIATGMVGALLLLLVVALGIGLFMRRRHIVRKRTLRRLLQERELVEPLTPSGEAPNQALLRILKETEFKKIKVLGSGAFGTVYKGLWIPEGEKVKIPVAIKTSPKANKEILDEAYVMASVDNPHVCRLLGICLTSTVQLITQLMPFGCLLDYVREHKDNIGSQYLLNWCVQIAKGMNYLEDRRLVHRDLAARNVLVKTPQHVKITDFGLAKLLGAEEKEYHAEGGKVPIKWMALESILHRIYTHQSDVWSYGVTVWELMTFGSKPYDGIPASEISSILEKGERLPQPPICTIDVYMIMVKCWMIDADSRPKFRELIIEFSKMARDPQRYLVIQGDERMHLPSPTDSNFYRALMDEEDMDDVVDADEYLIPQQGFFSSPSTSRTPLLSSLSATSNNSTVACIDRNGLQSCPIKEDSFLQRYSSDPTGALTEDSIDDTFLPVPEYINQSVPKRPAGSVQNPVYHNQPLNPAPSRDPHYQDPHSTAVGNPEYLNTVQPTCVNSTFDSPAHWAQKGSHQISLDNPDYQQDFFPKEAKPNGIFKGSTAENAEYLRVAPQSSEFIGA
Experimental: 40 μg/per lane of cell lysates were analyzed by western blot. The antibodies of actin, EGFR, and p-EGFR were from Cell Signaling (Danvers, Mass.). In FIGS. 1A-1B, actin lines are used to show an internal standard for the loading control in this western blot.

PLC5 xenograft tumor = PLC5 xenograft tumor growth in nude mice; conditions: erlotinib 50 mg/kg/day; for effect on PLC5 tumor growth, in words: p.o. daily for 3 weeks, compounds 20 mg/kg/day (FIG. 6A-6B); for tumor inhibition, PLC5 cell: p.o. daily, after 21 days of treatment, compounds 8 and 19 20 mg/kg/day
Experimental: (§6) The mice were housed in groups and maintained under standard laboratory conditions on a 12-hour light-dark cycle. They were given access to sterilized food and water ad libitum. All experimental procedures using these mice were performed in accordance with protocols approved by the Institutional Laboratory Animal Care and Use Committee of National Taiwan University. Each mouse was inoculated s.c. in the dorsal flank with 1×10^6 HCC cells suspended in 0.1 ml of serum-free medium containing 50% Matrigel (BD Biosciences, Bedford, Mass.). […] Controls received vehicle.
(§7) Tumor growth data points are reported as mean tumor volume±SE.

Huh-7 xenograft tumor = Huh-7 xenograft tumor growth in nude mice; conditions: erlotinib 50 mg/kg/day; for effect on Huh-7 tumor growth, in words: p.o. daily for 3 weeks, compounds 20 mg/kg/day (FIG. 7A-7B); for tumor inhibition, Huh7 cell: p.o. daily, after 21 days of treatment, compounds 8 and 19 20 mg/kg/day
Experimental: as §6, §7

EGFR [5] = target: EGFR (Homo sapiens, UniProt P00533); assay: western blot of EGFR phosphorylation in H358 cells; conditions: 1 and 5 μM, 24 hours (FIG. 1C)
EGFR (Homo sapiens, UniProt P00533), sequence (P00533 25-1210): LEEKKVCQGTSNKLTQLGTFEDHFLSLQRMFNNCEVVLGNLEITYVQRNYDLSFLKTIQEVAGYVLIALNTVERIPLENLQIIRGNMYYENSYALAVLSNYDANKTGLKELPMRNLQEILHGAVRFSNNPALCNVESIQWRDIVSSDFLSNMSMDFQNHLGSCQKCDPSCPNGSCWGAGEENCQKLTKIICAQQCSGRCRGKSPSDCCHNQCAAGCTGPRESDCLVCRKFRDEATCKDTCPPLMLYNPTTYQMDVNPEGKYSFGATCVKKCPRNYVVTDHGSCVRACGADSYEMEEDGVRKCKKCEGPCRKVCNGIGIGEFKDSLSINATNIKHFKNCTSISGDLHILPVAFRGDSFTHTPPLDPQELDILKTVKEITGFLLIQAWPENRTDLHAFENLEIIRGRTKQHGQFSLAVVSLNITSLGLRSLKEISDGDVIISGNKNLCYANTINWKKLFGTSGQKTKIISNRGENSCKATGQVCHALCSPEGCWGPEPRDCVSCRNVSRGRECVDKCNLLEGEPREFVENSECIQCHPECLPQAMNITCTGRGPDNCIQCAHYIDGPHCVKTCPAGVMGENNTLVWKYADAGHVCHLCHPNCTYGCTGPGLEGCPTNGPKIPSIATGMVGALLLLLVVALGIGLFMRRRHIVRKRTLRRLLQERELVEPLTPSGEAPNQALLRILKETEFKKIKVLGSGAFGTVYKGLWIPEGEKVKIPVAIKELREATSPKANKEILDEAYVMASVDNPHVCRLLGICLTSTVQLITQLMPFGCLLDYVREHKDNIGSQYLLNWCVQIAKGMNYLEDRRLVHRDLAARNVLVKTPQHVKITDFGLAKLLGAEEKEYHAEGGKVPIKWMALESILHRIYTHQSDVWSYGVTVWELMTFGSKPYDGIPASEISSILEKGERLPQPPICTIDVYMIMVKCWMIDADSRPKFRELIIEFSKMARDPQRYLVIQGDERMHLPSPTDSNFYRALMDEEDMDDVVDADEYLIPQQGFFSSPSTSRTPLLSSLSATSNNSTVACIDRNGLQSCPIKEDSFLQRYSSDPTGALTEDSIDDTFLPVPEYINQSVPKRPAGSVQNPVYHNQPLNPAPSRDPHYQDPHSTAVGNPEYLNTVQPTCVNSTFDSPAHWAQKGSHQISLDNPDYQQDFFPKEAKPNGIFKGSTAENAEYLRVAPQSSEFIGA

SK-Hep-1 cells = assay: apoptotic cell death by flow cytometry (sub-G1) and cell death detection ELISA; type: cell-based; conditions: 2.5 and 5 μM, 24 h (FIG. 4B-4C)
Experimental: FIG. 4B is flow cytometry analysis of cell death induced by compounds 4, 19, and 22 at 5 μM, after 24 h of treatment in SK-Hep-1 cells. The apoptotic cells were assessed by flow cytometry (sub-G1). After Sk-Hep-1 cells were treated with compounds 4, 19, and 22, Sk-Hep-1 cells were trypsinized, collected by centrifugation and resuspended in PBS. After centrifugation, the cells were washed in PBS and resuspended in […] (PI) staining solution. Specimens were incubated in the dark for 30 min at 37° C. and then analyzed with an EPICS Profile II flow cytometer (Coulter Corp., Hialeah, Fla.). All experiments were performed in triplicate
FIG. 4C is ELISA analysis of cell death to analyze effects of compounds 4, 19, and 22 on DNA fragmentation in SK-Hep-1 cells. The effect of compounds 4, 19 and 22 on cell viability was assessed by a cell death detection ELISA kit (Roche Applied Science, Mannheim, Germany). SK-Hep-1 cells were treated with compounds 4 and 19 at 22 at 2.5 and 5 μM for 24 h. The cells were collected and assayed according to the standard protocol provided by the manufacturer.

Hep3B cell lines = assay: MTT assay, growth inhibition of Hep3B cells; type: cell-based; conditions: Homo sapiens
Experimental: as §1
(§3) Next, compounds 19, and 34-36 were screened against a panel of Hep3B cell lines for growth-inhibitory activities. […] Compounds 87-90, 95 and 96 were screened against a panel of PLC5 cell lines for growth-inhibitory activities.

CIP2A [6] = assay: western blot of CIP2A expression in H358, H460 and H322 lung cancer cells; type: cell-based; conditions: 5 μM (FIG. 3C)
Experimental: (§4) Similarly, CIP2A expressions analyzed by western blot were also performed for lung cancer cells, H358, H460, and H322 cell lines. Moreover, drug-induced apoptotic cell death was also assessed by western blot analysis of activated caspases cleaved poly(ADP-ribose)polymerase (PARP). The cleavage of PARP is explained as follow. The compound induces apoptotic signal which cleave the procaspase 3 to the active caspase 3. The activation of caspase 3 further cleaves PARP and inactivate PAPR function. The events are thought to be required in late apoptosis. Therefore, the PARP cleavage is an indicator of apoptosis.
(§5) In the PARP row of FIG. 3C, the upper bands represented the uncleavage PARP, and the middle band and lower band represented cleavage PARP.

PARP [7] = assay: western blot of PARP cleavage in H358, H460 and H322 lung cancer cells; type: cell-based; conditions: 5 μM (FIG. 3C)
Experimental: as §4, §5

[8] = test system: SK-Hep-1 cell lines (a hepatocellular carcinoma (HCC) cell); assay: MTT assay, growth inhibition of SK-Hep-1 cells; type: cell-based; conditions: 2.5 and 5 μM, 24 h (FIG. 3B)
PLC5 cell lines = assay: MTT assay, growth inhibition of PLC5 cells; type: cell-based
Experimental: as §1, §3

CIP2A [9] = assay: western blot of CIP2A expression in PLC/PRF/5 cells; type: cell-based; conditions: 10 μM, 48 hours (FIG. 8)
Experimental: PLC/PRF/5 cells were exposed to compounds 88, 95 and 96 at various doses (5 and 10 μM) for 48 hours. Total lysates were subjected to CIP2A protein analysis by western blot. Actin was used as a loading control.

Clc1nccc(Nc2ccc(Oc3ccccc3)cc2)n1 [Compound 4, 2-Chloro-N-(4-phenoxyphenyl)pyrimidin-4-amine]
IC50 ([1]; Homo sapiens, SK-HEP1, 48 h): > 40 µM | growth-inhibitory activity (MTT), in words ([1]; SK-Hep-1 (HCC) cells): no activity in either assay | inhibiting CIP2A expression (CIP2A [2]): no activity | p-Akt level (p-Akt): no activity | PARP cleavage (PARP [3]): no activity

C#Cc1cccc(Nc2nc(Cl)nc3cc(OC)c(OC)cc23)c1 [Compound 8, 2-Chloro-N-(3-ethynylphenyl)-6,7-dimethoxyquinazoline-4-amine]
EGFR kinase inhibition (p-EGFR western blot) (EGFR [4]; PC9 cells, 0.5, 1, 2, 4, and 8 μM, 24 hours (FIG. 1A-1B)): devoid of EGFR kinase inhibition | IC50 ([1]; Homo sapiens, SK-HEP1, 48 h): < 10 µM | effect on PLC5 tumor growth, in words (PLC5 xenograft tumor): significantly reduced the growth of tumor | tumor inhibition, PLC5 cell (PLC5 xenograft tumor): 45.7% | effect on Huh-7 tumor growth, in words (Huh-7 xenograft tumor): better inhibitory effect on Huh-7 tumors than erlotinib | tumor inhibition, Huh7 cell (Huh-7 xenograft tumor): 40.3% | EGFR phosphorylation inhibition (western blot) (EGFR [5]): devoid of EGFR kinase inhibition

C#Cc1cccc(Nc2nc(NCc3ccccc3)nc3cc(OC)c(OC)cc23)c1 [Compound 22, N^2-Benzyl-N^4-(3-ethynylphenyl)-6,7-dimethoxy quinazoline-2,4-diamine]
EGFR phosphorylation inhibition (western blot) (EGFR [4]): no inhibitory effect on EGFR kinase | IC50 [1]: 2.8 µM | inhibiting CIP2A expression (CIP2A [2]): inhibiting CIP2A expression; also recorded: most potent inhibition of CIP2A expression | p-Akt level (p-Akt): reducing p-Akt level; also recorded: reduced Akt phosphorylation | PARP cleavage (PARP [3]): inducing PARP cleavage | cell apoptosis (sub-G1 flow cytometry, DNA fragmentation ELISA) (SK-Hep-1 cells): induced cell apoptosis | effect on PLC5 tumor growth, in words (PLC5 xenograft tumor): significantly reducing the growth of tumor

C#Cc1cccc(Nc2nc(Nc3ccc(Oc4ccccc4)cc3)nc3cc(OC)c(OC)cc23)c1 [Compound 19, N^4-(3-Ethynylphenyl)-6,7-dimethoxy-N^2-(4-phenoxyphenyl)quinazoline-2,4-diamine]
EGFR phosphorylation inhibition (western blot) (EGFR [4]): no inhibitory effect on EGFR kinase | IC50 [1]: 2.8 µM | IC50 (Hep3B cell lines): 1.28 µM | inhibiting CIP2A expression (CIP2A [2]): inhibiting CIP2A expression; also recorded: most potent inhibition of CIP2A expression | CIP2A expression (CIP2A [2]; 2.5 and 5 μM, 24 h (FIG. 3B)): reduce the CIP2A expression | CIP2A expression (CIP2A [6]): down-regulate the expression of CIP2A | PARP cleavage (PARP [7]): induce the cleavage of PARP | p-Akt level (p-Akt): reducing p-Akt level; also recorded: reduced Akt phosphorylation | PARP cleavage (PARP [3]): inducing PARP cleavage | cell apoptosis (sub-G1 flow cytometry, DNA fragmentation ELISA) (SK-Hep-1 cells): induced cell apoptosis | cell viability (MTT) [8]: reduce the CIP2A expression and the cell viability in a dosage dependent manner | effect on PLC5 tumor growth, in words (PLC5 xenograft tumor): significantly reduced the growth of tumor; also recorded: better inhibitory effect on PLC5 tumors than erlotinib; also recorded: significantly reducing the growth of tumor | tumor inhibition, PLC5 cell (PLC5 xenograft tumor): 60.6% | effect on Huh-7 tumor growth, in words (Huh-7 xenograft tumor): better inhibitory effect on Huh-7 tumors than erlotinib | tumor inhibition, Huh7 cell (Huh-7 xenograft tumor): 34.8%

C#Cc1cccc(Nc2nc(Nc3ccc(Cl)c(Oc4ccc(C#N)c(Cl)c4)c3)nc3cc(OC)c(OC)cc23)c1 [Compound 88, 2-chloro-4-(2-chloro-5-((4-((3-ethynylphenyl)amino)-6,7-dimethoxyquinazolin-2-yl)amino)phenoxy)benzonitrile]
IC50 (PLC5 cell lines; PLC5, PLC5 cells): 12.7 µM | inhibition of CIP2A expression (CIP2A [9]): high degree of repression of CIP2A

C=C1[C@@H](O)[C@@H]2O[C@]3(CC[C@H](/C=C/[C@@H](C)[C@@H]4CC(C)=C[C@@]5(O[C@H](C[C@@](C)(O)C(=O)O)CC[C@H]5O)O4)O3)CC[C@H]2O[C@@H]1[C@@H](O)C[C@H](C)[C@H]1O[C@@]2(CCCCO2)CC[C@H]1C [okadaic acid, reference compound]
p-Akt level in compound 19 treated cells (p-Akt; SK-Hep-1 cells treated with compound 19 (FIG. 5B)): reversed p-Akt level

C#Cc1cccc(Nc2nc(Nc3ccc(Oc4ccc(Cl)c(Cl)c4)cc3)nc3cc(OC)c(OC)cc23)c1 [Compound 95, N^2-(4-(3,4-dichlorophenoxyl)phenyl)-N^4-(3-ethynylphenyl)-6,7-dimethoxyquinazoline-2,4-diamine]
IC50 (PLC5 cell lines; PLC5 cells): 0.95 µM | inhibition of CIP2A expression (CIP2A [9]): high degree of repression of CIP2A
